Results published in patent US9040530B2, “1,2,4-triazine-6-carboxamide kinase inhibitors” (Portola Pharmaceuticals, Inc., priority 2012, dated 2015).

target: T1, full length active recombinant SYK enzyme (Homo sapiens, UniProt P43405); assay: Inhibition of Syk tyrosine phosphorylation activity (LANCE TR-FRET kinase assay); type: biochemical; conditions: 1 nM active SYK enzyme, 550 nM SYK-substrate, 100 μM ATP, 1 hour at room temperature
T1 construct: full length active recombinant SYK enzyme (Millipore, Calif.); purchased Millipore
Experimental: The in vitro and in vivo human Syk activities of the inventive compounds can be determined by various procedures known in the art, such as a test for their ability to inhibit the activity of human plasma Syk.
Inhibition of Syk Tyrosine Phosphorylation Activity
SYK tyrosine phosphorylation activity is measured using the LANCE™ Technology developed by Perkin Elmer Life and Analytical Sciences (Boston, Mass.). LANCE™ refers to homogeneous time resolved fluorometry applications using techniques such as time-resolved fluorescence resonance energy transfer assay (TR-FRET) (see generally for procedures in Perkin Elmer Application Note—How to Optimize a Tyrosine Kinase Assay Using Time Resolved Fluorescence-Based LANCE Detection, wwww.perkinelmer.com/lifesciences). The assay principle involves detection of a phosphorylated substrate using energy transfer from a phosphospecific europium-labeled antibody to streptavidin-allophycocyanin as an acceptor.
Molecules are reconstituted in 30% DMSO and serially diluted 1:3 with the final dilution containing DMSO in the absence of the candidate molecule. The final DMSO concentration in the assay is 3%. Kinase assays are performed as a two part reaction. […] The second reaction involves termination of the kinase reaction and the simultaneous addition of the detection reagents-europium-labeled anti-phosphotyrosine reagent (Eu-W1024-PY100, Perkin Elmer, Boston, Mass.) and Streptavidin-Allophycocyanin detection reagent (SA-APC, Prozyme, CA). The kinase reaction is performed in a black U-bottom 96-well microtitre plate. […] The reaction is allowed to proceed for 1 hour at room temperature. The quench buffer contains 100 mM Tris pH 7.5, 300 mM […], 20 mM EDTA, 0.02% Brij35, and 0.5% BSA. The detection reagents are added to the reaction mixture at the following dilutions-1:500 for Eu-W1024-PY100 and 1:250 for SA-APC. The kinase reaction is terminated by the addition of 50 μL quench buffer containing the detection reagents. The detection is allowed to proceed for 1 hr at room temperature. Detection of the phosphorlated substrate in the absence and presence of inhibitors is measured in the TR-FRET instrument, Analyst HT (Molecular Probes, Sunnyvale, Calif.) and the condition for measurements are set up using CriterionHost Release 2.0 (Molecular Probes, Sunnyvale, Calif.). […] IC50s were derived by non-linear regression analysis.

Row | IC50 [nM] | Structure (SMILES)
1 | 10 to 100 | NC(=O)c1nnc(N[C@@H]2CCCC[C@@H]2N)nc1Nc1ccc([N+]2([O-])CCCCC2)c(F)c1 [Example 32, 1-(4-((3-(((1R,2S)-2-aminocyclohexyl)amino)-6-carbamoyl-1,2,4-triazin-5-yl)amino)-2-fluorophenyl)piperidine 1-oxide]
2 | 100 to 1000 | NC(=O)c1nnc(N[C@@H]2CCCC[C@@H]2N)nc1Nc1ccc(N2CCOCC2=O)c(F)c1 [Example 33, 3-(((1R,2S)-2-aminocyclohexyl)amino)-5-((3-fluoro-4-(3-oxomorpholino)phenyl)amino)-1,2,4-triazine-6-carboxamide]
3 | 100 to 1000 | NC(=O)c1nnc(N[C@@H]2CCCC[C@@H]2N)nc1Nc1ccc(N2CCOCC2=O)cc1 [Example 34, 3-(((1R,2S)-2-aminocyclohexyl)amino)-5-((4-(3-oxomorpholino)phenyl)amino)-1,2,4-triazine-6-carboxamide]
4 | 1 to 10 | NC(=O)c1nnc(N[C@@H]2CCCC[C@@H]2N)nc1Nc1cnn2ccccc12 [Example 35, 3-(((1R,2S)-2-aminocyclohexyl)amino)-5-(pyrazolo[1,5-a]pyridin-3-ylamino)-1,2,4-triazine-6-carboxamide]
5 | 10 to 100 | NC(=O)c1nnc(N[C@@H]2CCCC(F)(F)[C@@H]2N)nc1Nc1cnn2ccccc12 [Example 36, 3-(((1R,2R)-2-amino-3,3-difluorocyclohexyl)amino)-5-(pyrazolo[1,5-a]pyridin-3-ylamino)-1,2,4-triazine-6-carboxamide]
6 | 1 to 10 | NC(=O)c1nnc(N[C@@H]2CCCC[C@@H]2N)nc1Nc1csc2ncccc12 [Example 37, 3-(((1R,2S)-2-aminocyclohexyl)amino)-5-(thieno[2,3-b]pyridin-3-ylamino)-1,2,4-triazine-6-carboxamide]
7 | 10 to 100 | NC(=O)c1nnc(N[C@@H]2CCCC(F)(F)[C@@H]2N)nc1Nc1csc2ncccc12 [Example 38, 3-(((1R,2R)-2-amino-3,3-difluorocyclohexyl)amino)-5-(thieno[2,3-b]pyridin-3-ylamino)-1,2,4-triazine-6-carboxamide]
8 | 1 to 10 | CC[C@@H](Nc1nnc(C(N)=O)c(Nc2csc3ncccc23)n1)C(N)=O [Example 39, (R)-3-((1-amino-1-oxobutan-2-yl)amino)-5-(thieno[2,3-b]pyridin-3-ylamino)-1,2,4-triazine-6-carboxamide]
9 | 10 to 100 | NC(=O)c1nnc(N[C@@H]2CCCC[C@@H]2N)nc1Nc1cccc2ncsc12 [Example 40, 3-(((1R,2S)-2-aminocyclohexyl)amino)-5-(benzo[d]thiazol-7-ylamino)-1,2,4-triazine-6-carboxamide]
10 | 1 to 10 | NC(=O)c1nnc(N[C@@H]2CCCC[C@@H]2N)nc1Nc1ccc2scnc2c1 [Example 41, 3-(((1R,2S)-2-aminocyclohexyl)amino)-5-(benzo[d]thiazol-5-ylamino)-1,2,4-triazine-6-carboxamide]
11 | 1 to 10 | NC(=O)c1nnc(N[C@@H]2CCCC[C@@H]2N)nc1Nc1ccc2ncsc2c1 [Example 42, 3-(((1R,2S)-2-aminocyclohexyl)amino)-5-(benzo[d]thiazol-6-ylamino)-1,2,4-triazine-6-carboxamide]
12 | 10 to 100 | NC(=O)c1nnc(N[C@@H]2CCCC(F)(F)[C@@H]2N)nc1Nc1ccc2ncsc2c1 [Example 43, 3-(((1R,2R)-2-amino-3,3-difluorocyclohexyl)amino)-5-(benzo[d]thiazol-6-ylamino)-1,2,4-triazine-6-carboxamide]
13 | 10 to 100 | NC(=O)c1nnc(N[C@@H]2CCCC[C@@H]2N)nc1Nc1ccc2nccn2c1 [Example 44, 3-(((1R,2S)-2-aminocyclohexyl)amino)-5-(imidazo[1,2-a]pyridin-6-ylamino)-1,2,4-triazine-6-carboxamide]
14 | 10 to 100 | NC(=O)c1nnc(N[C@@H]2CCCC[C@@H]2N)nc1Nc1cnc2ncccc2c1 [Example 45, 5-((1,8-naphthyridin-3-yl)amino)-3-(((1R,2S)-2-aminocyclohexyl)amino)-1,2,4-triazine-6-carboxamide]
15 | 1 to 10 | NC(=O)c1nnc(N[C@@H]2CCCC[C@@H]2N)nc1Nc1cccc2ncccc12 [Example 46, 3-(((1R,2S)-2-aminocyclohexyl)amino)-5-(quinolin-5-ylamino)-1,2,4-triazine-6-carboxamide]
16 | 1 to 10 | NC(=O)c1nnc(N[C@@H]2CCCC[C@@H]2N)nc1Nc1ccc2ncccc2c1 [Example 47, 3-(((1R,2S)-2-aminocyclohexyl)amino)-5-(quinolin-6-ylamino)-1,2,4-triazine-6-carboxamide]
17 | 10 to 100 | NC(=O)c1nnc(N[C@@H]2CCCC[C@@H]2N)nc1Nc1ccc2c(ccc[n+]2[O-])c1 [Example 48, 6-((3-(((1R,2S)-2-aminocyclohexyl)amino)-6-carbamoyl-1,2,4-triazin-5-yl)amino)quinoline 1-oxide]
18 | 10 to 100 | NC(=O)c1nnc(N[C@@H]2CCCC(F)(F)[C@@H]2N)nc1Nc1ccc2ncccc2c1 [Example 49, 3-(((1R,2R)-2-amino-3,3-difluorocyclohexyl)amino)-5-(quinolin-6-ylamino)-1,2,4-triazine-6-carboxamide]
19 | 100 to 1000 | NC(=O)c1nnc(N[C@@H]2CCCC(F)(F)[C@@H]2N)nc1Nc1ccc2c(ccc[n+]2[O-])c1 [Example 50, 6-((3-(((1R,2R)-2-amino-3,3-difluorocyclohexyl)amino)-6-carbamoyl-1,2,4-triazin-5-yl)amino)quinoline 1-oxide]
20 | 1 to 10 | CC[C@@H](Nc1nnc(C(N)=O)c(Nc2ccc3ncccc3c2)n1)C(N)=O [Example 51, (R)-3-((1-amino-1-oxobutan-2-yl)amino)-5-(quinolin-6-ylamino)-1,2,4-triazine-6-carboxamide]
21 | 10 to 100 | CC(C)[C@@H](Nc1nnc(C(N)=O)c(Nc2ccc3ncccc3c2)n1)C(N)=O [Example 52, (R)-3-((1-amino-3-methyl-1-oxobutan-2-yl)amino)-5-(quinolin-6-ylamino)-1,2,4-triazine-6-carboxamide]
22 | 1 to 10 | CC(C)C[C@@H](Nc1nnc(C(N)=O)c(Nc2ccc3ncccc3c2)n1)C(N)=O [Example 53, (R)-3-((1-amino-4-methyl-1-oxopentan-2-yl)amino)-5-(quinolin-6-ylamino)-1,2,4-triazine-6-carboxamide]
23 | 10 to 100 | CC(C)C[C@@H](Nc1nnc(C(N)=O)c(Nc2ccc3c(ccc[n+]3[O-])c2)n1)C(N)=O [Example 54, (R)-6-((3-((1-amino-4-methyl-1-oxopentan-2-yl)amino)-6-carbamoyl-1,2,4-triazin-5-yl)amino)quinoline 1-oxide]
24 | 1 to 10 | NC(=O)c1nnc(N[C@@H]2CCOC[C@@H]2N)nc1Nc1ccc2ncccc2c1 [Example 55, 3-(((3R,4R)-3-aminotetrahydro-2H-pyran-4-yl)amino)-5-(quinolin-6-ylamino)-1,2,4-triazine-6-carboxamide]
25 | 10 to 100 | NC(=O)c1nnc(N[C@H]2CC[C@@H](N)CC2)nc1Nc1ccc2ncccc2c1 [Example 56, 3-(((1S,4S)-4-aminocyclohexyl)amino)-5-(quinolin-6-ylamino)-1,2,4-triazine-6-carboxamide]
26 | 1 to 10 | NC(=O)c1nnc(N[C@@H]2CCNC2)nc1Nc1ccc2ncccc2c1 [Example 57, (R)-3-(pyrrolidin-3-ylamino)-5-(quinolin-6-ylamino)-1,2,4-triazine-6-carboxamide]
27 | 1 to 10 | NC(=O)c1nnc(N[C@@H]2CCCC[C@@H]2N)nc1Nc1cnc2ccccc2c1 [Example 58, 3-(((1R,2S)-2-aminocyclohexyl)amino)-5-(quinolin-3-ylamino)-1,2,4-triazine-6-carboxamide]
28 | 10 to 100 | CC[C@@H](Nc1nnc(C(N)=O)c(Nc2cnc3ccccc3c2)n1)C(N)=O [Example 59, (R)-3-((1-amino-1-oxobutan-2-yl)amino)-5-(quinolin-3-ylamino)-1,2,4-triazine-6-carboxamide]
29 | 100 to 1000 | CN(C)C(=O)c1ccc(Nc2nc(N[C@@H]3CCCC[C@@H]3N)nnc2C(N)=O)cc1 [Example 62, 3-(((1R,2S)-2-aminocyclohexyl)amino)-5-((4-(dimethylcarbamoyl)phenyl)amino)-1,2,4-triazine-6-carboxamide]
30 | 10 to 100 | NC(=O)c1nnc(N[C@@H]2CCCC[C@@H]2N)nc1Nc1ccc(C(=O)N2CCC2)cc1 [Example 63, 3-(((1R,2S)-2-aminocyclohexyl)amino)-5-((4-(azetidine-1-carbonyl)phenyl)amino)-1,2,4-triazine-6-carboxamide]
